The values that follow come from patent US6624199B1, “Aminobenzophenones” (Leo Pharmaceuticals Products Ltd. A/S, priority 1999, dated 2003).

SMILES strings stand for the structures. Entries after “also recorded” stand apart in the source; their conditions may differ. Like-named read-outs stand apart in the source and are kept apart here.

The test system of data set [1] is utriculi (pseudocomedones) of rhino mouse skin. Kind of data set: Rhino mouse model (comedolytic and hyperplastic potency, skin irritation). As to conditions: for Skin irritation YES/NO / % increase in epidermal thickness / % reduction in number of utriculi: once daily for three weeks; for comedolytic effect (reduction in number of utriculi), in words / epidermal hyperplasia (increase in epidermal thickness and follicular epithelia), in words: 1.5% concentration in acetone, three weeks; for clinical visible skin irritancy, in words: three weeks treatment period.
Method: (§2) The rhino mouse is an in vivo model for the study of hyperplastic and comedolytic potency of various drugs used in the treatment of acne. The rhino mouse has follicles on the skin. The orifices are distended with horny material and these structures resembles human microcomedones and are referred to as utriculi or pseudocomedones.
(§3) In the present study the effect of a number of compounds were evaluated in the rhino mouse model. […] Additionally a number of marketed products used today for treatment of acne were selected and included for comparison.
(§4) The animals were treated once daily for three weeks including weekends. […] Histological evaluation of the skin was performed at the end of the treatment period.

Data set [2] relates to Oxazolone-induced contact dermatitis in the mouse ear. As to the kind of experiment: Model 1: oxazolone-induced contact dermatitis in the mouse ear. The class given is in vivo. As to conditions: topical in acetone 30 min post-challenge, 0.5 mg/ear (all-trans retinoic acid 0.01 mg/ear). As for the experimental part: (§1) For in vivo assays, the test compounds were dissolved in acetone. Adapalene was tested as a gel formulation (Differin gel 0.1%, 20-30 mg/treatment). The screening doses were 0.5 mg/ear in model 1 and 2. Exception was all-trans retinoic acid (0.01 mg/ear).
Model 1. Oxazolone-induced Contact Dermatitis in the Mouse Ear
AIM Compounds with anti-inflammatory effects in this model may be useful in treating contact eczema in man.
METHODS Groups of 5-6 mice sensitised to oxazolone 4 days before challenge with oxazolone to the right ear. The resulting oedema (right ear thickness minus left ear thickness) is measured 24, 48 and 72 hours post-challenge (PC), and neutrophil (PMN) influx is determined by the myeloperoxidase (MPO) method 72 hours post-challenge in ear biopsies. The screening dose is 0.5 mg/ear or less applied to the right ear 30 min post-challenge (+30 min). Other dosing regimes are stated.
RESULTS Results are recorded as % change from control animals using the formula: 100(T/C-1) where T=mean Oedema/MPO treated group and C=mean Oedema/MPO control group. Negative figures represent inhibition and positive stimulation. The level of significance is set at p<0.05 using the Mann-Whitney's U-test. Significant stimulation is stated.

The conditions of data set [3]: cited from earlier work.
Data set [4] deals with TPA-induced chronic skin inflammation in the mouse ear. As to the kind of experiment: Model 2: TPA-induced chronic skin inflammation in the mouse ear. The class given is in vivo. Conditions: topical in acetone twice daily day 8-10, once day 11, 0.5 mg/ear (all-trans retinoic acid 0.01 mg/ear). As for the experimental part: as §1
Model 2. Tpa-induced Chronic Skin Inflammation in the Mouse Ear
AIM Compounds with anti-inflammatory effects in this model may be useful in treating chronic skin disorders in man.
METHODS In groups of 5-6 mice, ear inflammation is induced by multiple topical applications of TPA on alternate days during a 10-day period. The resulting inflammation is treated topically with compounds in acetone solution twice daily on day 8, 9 and 10 and once on day 11. Ear thickness (ET) is determined 5-6 hours after the last drug administration, the mice are sacrificed and myeloperoxidase (MPO) activity (=PMN-infiltration) is determined in ear biopsies, cf. De Young, L. M. et al, Agents Actions, 26, 335-341 (1989); Carlson, R. P. et al, Agents Actions, 17, 197-204 (1985); Alford, J. G. et al, Agents Action, 37, (1992); Stanley, P. L. et at, Skin Pharmacol, 4, 262-271 (1991).
RESULTS Results are recorded as % change from control group using the formula: 100(T/C-1) where T=mean ET/MPO treated group and C=mean ET/MPO control group. Negative figures represent inhibition and positive stimulation. The level of significance is set at p<0.05 using the Mann-Whitney's U-test. Significant stimulation is stated.

The test system of data set [5] is utriculi (pseudocomedones) of rhino mouse skin. Conditions: in vivo.
Method: as §2, §3, §4
[6] abbreviates: Differin gel 0.1%, versus untreated controls.
[7] abbreviates: 20 μg/ml in ethanol, period 1, versus vehicle control.
The mark [8] stands for this setting: Skinoren cream 20%, versus untreated controls.
Where [9] appears, read: Basiron gel 5%, versus untreated controls.
Where [10] appears, read: Basiron gel 10%, versus untreated controls.
Setting [11] is: 1.5% in acetone, versus vehicle control.

As for `COc1ccc(-c2ccc3cc(C(=O)O)ccc3c2)cc1C12CC3CC(CC(C3)C1)C2` [Adapalene], in data set [1] (Differin gel 0.1%), the “Skin irritation YES/NO” value was “YES”. Also, in data set [1] (setting [6]), the “% increase in epidermal thickness” value was determined as 202% and the “% reduction in number of utriculi” value is on record as 92.7%.

With `CC1=C(/C=C/C(C)=C/C=C/C(C)=C/C(=O)O)C(C)(C)CCC1` [All-trans retinoic acid], the “SCORE OXA Oedema 48 hours p.c.” value in data set [2] is listed as 0 (% inhibition Oedema 48 h PC < 25). In addition, in data set [3] (topical administration), the Anti-inflam. entry is “No”, the Antibacterial result is given as “No”, the Comedolytic result was “Yes” and the Potential irritant result is listed as “Yes”. Also, the Teratogenic result in data set [3] (topical administration) is reported as “Maybe”. For the same molecule, in data set [1] (20 μg/ml in ethanol, period 1), the “Skin irritation YES/NO” value is “YES”. Besides, in data set [1] (setting [7]), the “% increase in epidermal thickness” value is 110% and the “% reduction in number of utriculi” value came to 81.5%. Further, in data set [4], the “SCORE TPA Ear swelling” value is on record as 0 (% inhibition ET <25).

Take `O=C(O)CCCCCCCC(=O)O` [Azelaic acid]: in data set [2], the “SCORE OXA Oedema 48 hours p.c.” value was 0 (% inhibition Oedema 48 h PC < 25). For the same molecule, in data set [3] (topical administration), the Anti-inflam. result is given as “Maybe”, the Antibacterial result is reported as “Yes”, the Comedolytic entry is given as “Yes” and the Potential irritant entry is “Yes”. For the same molecule, the Teratogenic entry in data set [3] (topical administration) is “No”. In addition, in data set [1] (setting [8]), the “% increase in epidermal thickness” value is 75% and the “% reduction in number of utriculi” value worked out at 5.7%. Besides, in data set [4], the “SCORE TPA Ear swelling” value was 0 (% inhibition ET <25). In data set [5], the “Skin irritation YES/NO” value is “NO”.

In the case of `O=C(OOC(=O)c1ccccc1)c1ccccc1` [Benzoyl peroxide], in data set [2], the “SCORE OXA Oedema 48 hours p.c.” value is on record as 0 (% inhibition Oedema 48 h PC < 25). In data set [3] (topical administration), the Anti-inflam. entry was “Maybe”, the Antibacterial result was “Yes”, the Comedolytic entry is recorded as “Some-” and the Potential irritant result is “Yes”. For the same molecule, in data set [1] (Basiron gel 5%), the “Skin irritation YES/NO” value is recorded as “YES”. In addition, in data set [1] (setting [9]), the “% increase in epidermal thickness” value is 178% and the “% reduction in number of utriculi” value is 46.1%. Further, the “Skin irritation YES/NO” value in data set [1] (Basiron gel 10%) is listed as “YES”. Besides, in data set [1] (setting [10]), the “% increase in epidermal thickness” value is on record as 190% and the “% reduction in number of utriculi” value was found to be 62.1%. The “SCORE TPA Ear swelling” value in data set [4] is recorded as 0 (% inhibition ET <25).

Turning to `CCC[C@@H]1C[C@@H](C(=O)N[C@@H]([C@H]2O[C@H](SC)[C@H](O)[C@@H](O)[C@H]2O)[C@H](C)Cl)N(C)C1` [Clindamycin], the Teratogenic entry in data set [3] (topical administration) is “Probably”.

Take `Cc1ccccc1C(=O)c1ccc(Nc2ccc(Br)cc2N)cc1Cl` [Compound 101, 4-(2-Amino-4-bromophenylamino)-2-chloro-2′-methylbenzophenone]: the “SCORE OXA Oedema 48 hours p.c.” value in data set [2] is recorded as 2 (% inhibition Oedema 48 h PC ≧ 35 p < 0.05). Further, in data set [1], the “comedolytic effect (reduction in number of utriculi), in words” value is “comedolytic effect; also recorded: most pronounced comedolytic activity”; the “epidermal hyperplasia (increase in epidermal thickness and follicular epithelia), in words” value is “epidermal hyperplasia”; the “clinical visible skin irritancy, in words” value is on record as “without concomitant skin irritancy”. In data set [1] (setting [11]), the “% increase in epidermal thickness” value was 203% and the “% reduction in number of utriculi” value came out at 67.4%. For the same molecule, the “SCORE TPA Ear swelling” value in data set [4] is reported as 3 (% inhibition ET ≧50 p < 0.05).

Take `Cc1ccccc1C(=O)c1ccc(Nc2ccc(F)cc2N)cc1Cl` [Compound 102, 4-(2-Amino-4-fluorophenylamino)-2-chloro-2′-methylbenzophenone]: in data set [1], the “comedolytic effect (reduction in number of utriculi), in words” value is given as “comedolytic effect”; the “epidermal hyperplasia (increase in epidermal thickness and follicular epithelia), in words” value is “epidermal hyperplasia”.

On to `Cc1ccccc1C(=O)c1ccc(Nc2ccccc2N)cc1Cl` [Compound 103, 4-(2-aminophenylamino)-2-chloro-2′-methylbenzophenone], for which the “SCORE OXA Oedema 48 hours p.c.” value in data set [2] is listed as 2 (% inhibition Oedema 48 h PC ≧ 35 p < 0.05). Moreover, in data set [1], the “comedolytic effect (reduction in number of utriculi), in words” value was “comedolytic effect”; the “epidermal hyperplasia (increase in epidermal thickness and follicular epithelia), in words” value is recorded as “epidermal hyperplasia”; the “clinical visible skin irritancy, in words” value was “without concomitant skin irritancy”. Further, in data set [1] (listed as 4-(2-aminophenylamino)-2-chloro-2′-methylbenzophenone), the “comedolytic effect (reduction in number of utriculi), in words” value is reported as “comedolytic activity”. In addition, in data set [1] (setting [11]), the “% increase in epidermal thickness” value was found to be 120% and the “% reduction in number of utriculi” value came to 52.5%. The “SCORE TPA Ear swelling” value in data set [4] is on record as 2 (% inhibition ET ≧40 p < 0.05).

`CCOC(=O)Nc1ccccc1Nc1ccc(C(=O)c2ccccc2C)c(Cl)c1` [Compound 106, ethyl N-(2-(4-(2-methylbenzoyl)-3-chlorophenylamino)phenyl)carbamate]: in data set [2], the “SCORE OXA Oedema 48 hours p.c.” value is recorded as 2 (% inhibition Oedema 48 h PC ≧ 35 p < 0.05). In data set [1], the “comedolytic effect (reduction in number of utriculi), in words” value is reported as “comedolytic effect”; the “epidermal hyperplasia (increase in epidermal thickness and follicular epithelia), in words” value is listed as “epidermal hyperplasia”; the “clinical visible skin irritancy, in words” value was “without concomitant skin irritancy”. Also, the “comedolytic effect (reduction in number of utriculi), in words” value in data set [1] (listed as ethyl N-(2-(4-(2-methylbenzoyl)-3-chlorophenylamino)phenyl)carbamate) is “comedolytic activity”. Moreover, in data set [1] (setting [11]), the “% increase in epidermal thickness” value is recorded as 146% and the “% reduction in number of utriculi” value worked out at 38.3%. Moreover, the “SCORE TPA Ear swelling” value in data set [4] is on record as 2 (% inhibition ET ≧40 p < 0.05).

`C[C@H]1c2cccc(O)c2C(O)=C2C(=O)[C@]3(O)C(O)=C(C(N)=O)C(=O)[C@@H](N(C)C)[C@@H]3[C@@H](O)[C@@H]21` [Doxycyclin]: in data set [3] (systemic administration), the Anti-inflam. entry is listed as “Yes”, the Antibacterial result is on record as “Yes”, the Comedolytic result was “No” and the Potential irritant result is recorded as “No”. For the same molecule, in data set [3] (systemic administration), the Teratogenic result is on record as “Yes”.

Consider `CC[C@H]1OC(=O)[C@H](C)[C@@H](O[C@H]2C[C@@](C)(OC)[C@@H](O)[C@H](C)O2)[C@H](C)[C@@H](O[C@@H]2O[C@H](C)C[C@H](N(C)C)[C@H]2O)[C@](C)(O)C[C@@H](C)C(=O)[C@H](C)[C@@H](O)[C@]1(C)O` [Erythromycin], for which the “SCORE OXA Oedema 48 hours p.c.” value in data set [2] is 0 (% inhibition Oedema 48 h PC < 25). Also, the “SCORE TPA Ear swelling” value in data set [4] was 1 (% inhibition ET ≧25 p < 0.05).

As to `CC1=C(/C=C/C(C)=C/C=C/C(C)=C\C(=O)O)C(C)(C)CCC1` [Isotretinoin], in data set [3] (systemic administration), the Anti-inflam. result is listed as “Yes”, the Antibacterial result is recorded as “Yes”, the Comedolytic result is “Yes” and the Potential irritant result is on record as “Yes”. Further, the Teratogenic result in data set [3] (systemic administration) is “Yes”.

Regarding `CN(C)c1ccc(O)c2c1C[C@H]1C[C@H]3[C@H](N(C)C)C(O)=C(C(N)=O)C(=O)[C@@]3(O)C(O)=C1C2=O` [Minocyclin], in data set [3] (systemic administration), the Anti-inflam. entry was “Yes”, the Antibacterial entry is reported as “Yes”, the Comedolytic result was “No” and the Teratogenic entry is listed as “Yes”.

As for `CN(C)[C@@H]1C(=O)C(C(N)=O)=C(O)[C@@]2(O)C(=O)C3=C(O)c4c(O)cccc4[C@@](C)(O)[C@H]3C[C@@H]12` [Tetracyclin], in data set [3] (systemic administration), the Anti-inflam. entry was “Yes”, the Antibacterial entry is given as “Yes”, the Comedolytic entry was “No” and the Potential irritant entry was “No”. In addition, in data set [3] (systemic administration), the Teratogenic result is listed as “Yes”.
